Entries after “also recorded” stand apart in the source; their conditions may differ.
Legend:
Type in all cases: cell-based
[1] = system: MIAPACA2 cells; experiment: MTT cell proliferation assay in MIAPACA2 cells; conditions: 6 days, FIG. 11; for proliferation of MIAPACA2 cells: 0.01, 0.03, 0.1, 0.5, 1, 5 and 10 μM
Description: Assessment of the cell proliferation effects of WDR5 degraders XF056-132, XF056-173 and XF067-67 in MIAPACA2 cells (FIG. 11). MIAPACA2 cells were treated with DMSO or indicated compounds at 0.01 μM, 0.03 μM, 0.1 μM, 0.5 μM, 1 μM, 5 μM, and 10 μM for 6 days. MTT assay was used for detecting cell proliferation effects.
(§1) MIAPACA2 and Hela cells were cultured in DMEM supplemented with 10% FBS and 1% Penicillin/Streptomycin.

[2] = biological target: T1, WDR5 (Homo sapiens, UniProt P61964); experiment: Western blot of WDR5 protein levels in MIAPACA2 cells; set-up: After WDR5 degrader treatment, cells were collected and lysed; endogenous in cells; host or cells: MV4;11 and/or MIAPACA2; conditions: 18 h
Description: MIAPACA2 cells were treated with DMSO or indicated compounds at 0.1 μM, 0.5 μM, 1 μM, 5 μM, and 10 μM for 18 hours.
MIAPACA2 cells were treated with DMSO or indicated compounds at 0.5 μM and 1.0 μM for 18 hours.
MIAPACA2 cells were treated with DMSO or indicated compounds at 0.1 μM and 0.5 μM for 18 hours.
MIAPACA2 cells were treated with DMSO or indicated compounds at 0.5 μM and 1.0 μM or at 1.0 μM and 10 μM for 18 hours.
as §1
WDR5 degraders were dissolved in DMSO and DMSO with no degraders was used as the control. 1×10^6 MV4;11 cells or 1×10^5 MIAPACA2 or 2×10^5 Hela cells were seeded in 2 mL medium for each well in […].
For prescreening of all the compounds, each test compound was added to the medium at indicated concentrations. After 18 h treatment, cells were collected.
After WDR5 degrader treatment, cells were collected and lysed. Total cell lysates were used for western blot. The following primary antibodies were used: WDR5 (Santa Cruz), vinculin (Cell Signaling Technology), tubulin (Cell Signaling Technology), GAPDH (Santa Cruz). Blots were imaged using fluorescence-labeled secondary antibodies on ChemiDoc™ Imaging Systems.

[3] = biological target: T1, WDR5; experiment: Screening of putative WDR5 degraders by Western blot in MV4;11 and/or MIAPACA2 cells; set-up: After WDR5 degrader treatment, cells were collected and lysed; endogenous in cells; host or cells: MV4;11 and/or MIAPACA2; conditions: summary of screening, FIGS. 6-10
Method in brief: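 MV4;11 (1×10^6/well) or MIAPACA2 (1×10^5/well) cells treated 18 h with compound at paired doses between 0.1 and 10 μM, DMSO as control. Total lysates immunoblotted for WDR5 with vinculin, tubulin or GAPDH loading controls; fluorescent secondary detection.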

Compound: Cc1ncsc1-c1ccc([C@H](C)NC(=O)[C@@H]2C[C@@H](O)CN2C(=O)[C@@H](NC(=O)CNC(=O)c2ccc(F)c(-c3ccc(N4C[C@@H](C)N(C)[C@@H](C)C4)c(NC(=O)c4c[nH]c(=O)cc4C(F)(F)F)c3)c2)C(C)(C)C)cc1 [XF067-67, N-(2′-fluoro-5′-((2-(((S)-1-((2S,4R)-4-hydroxy-2-(((S)-1-(4-(4-methylthiazol-5-yl)phenyl)ethyl)carbamoyl)pyrrolidin-1-yl)-3,3-dimethyl-1-oxobutan-2-yl)amino)-2-oxoethyl)carbamoyl)-4-((3S,5R)-3,4,5-trimethylpiperazin-1-yl)-[1,1′-biphenyl]-3-yl)-6-oxo-4-(trifluoromethyl)-1,6-dihydropyridine-3-carboxamide]
- proliferation of MIAPACA2 cells [1]: significantly decreased the cell proliferation; also recorded: significantly reduced the proliferation of MIAPACA2 cells
- cell killing effect, rank among the 3 compounds ([1]; MIAPACA2 cells): the best cell killing effect among the 3 compounds

Compound: Cc1ncsc1-c1ccc([C@H](C)NC(=O)[C@@H]2C[C@@H](O)CN2C(=O)[C@@H](NC(=O)CCCCCCCCCC(=O)NCCN2CCN(Cc3cccc(-c4ccc(N5CCN(C)CC5)c(NC(=O)c5c[nH]c(=O)cc5C(F)(F)F)c4)c3)CC2)C(C)(C)C)cc1 [XF050-166, N^1-((S)-1-((2S,4R)-4-hydroxy-2-(((S)-1-(4-(4-methylthiazol-5-yl)phenyl)ethyl)carbamoyl)pyrrolidin-1-yl)-3,3-dimethyl-1-oxobutan-2-yl)-N^11-(2-(4-((4′-(4-methylpiperazin-1-yl)-3′-(6-oxo-4-(trifluoromethyl)-1,6-dihydropyridine-3-carboxamido)-[1,1′-biphenyl]-3-yl)methyl)piperazin-1-yl)ethyl)undecanediamide]
- WDR5 degradation effects ([2]; MIAPACA2 cells, 0.5 μM and 1.0 μM, FIG. 7): better WDR5 degradation effects than XF048-132 and XF048-140
- effective degradation of WDR5 in MV4;11 and/or MIAPACA2 cells [3]: able to effectively degrade WDR5

Compound: Cc1ncsc1-c1ccc(CNC(=O)[C@@H]2C[C@@H](O)CN2C(=O)[C@@H](NC(=O)CNC(=O)c2ccc(F)c(-c3ccc(N4C[C@@H](C)N(C)[C@@H](C)C4)c(NC(=O)c4c[nH]c(=O)cc4C(F)(F)F)c3)c2)C(C)(C)C)cc1 [XF056-132, N-(2′-fluoro-5′-((2-(((S)-1-((2S,4R)-4-hydroxy-2-((4-(4-methylthiazol-5-yl)benzyl)carbamoyl)pyrrolidin-1-yl)-3,3-dimethyl-1-oxobutan-2-yl)amino)-2-oxoethyl)carbamoyl)-4-((3R,5S)-3,4,5-trimethylpiperazin-1-yl)-[1,1′-biphenyl]-3-yl)-6-oxo-4-(trifluoromethyl)-1,6-dihydropyridine-3-carboxamide]
- proliferation of MIAPACA2 cells [1]: significantly decreased the cell proliferation; also recorded: significantly reduced the proliferation of MIAPACA2 cells
- degradation of WDR5 ([2]; MIAPACA2 cells, 0.1 μM and 0.5 μM, FIG. 8A-8C): can effectively degrade WDR5 at 0.1 μM and 0.5 μM
- effective degradation of WDR5 in MV4;11 and/or MIAPACA2 cells [3]: able to effectively degrade WDR5

Compound: CN1CCN(c2ccc(-c3cccc(CN4CCN(CCNC(=O)CCCCCCCNc5cccc6c5C(=O)N(C5CCC(=O)NC5=O)C6=O)CC4)c3)cc2NC(=O)c2c[nH]c(=O)cc2C(F)(F)F)CC1 (stereo not drawn) [XF048-140, N-(3′-((4-(2-(8-((2-(2,6-dioxopiperidin-3-yl)-1,3-dioxoisoindolin-4-yl)amino)octanamido)ethyl)piperazin-1-yl)methyl)-4-(4-methylpiperazin-1-yl)-[1,1′-biphenyl]-3-yl)-6-oxo-4-(trifluoromethyl)-1,6-dihydropyridine-3-carboxamide]
- reduction of WDR5 protein levels, concentration-dependent ([2]; MIAPACA2 cells, 0.1, 0.5, 1, 5 and 10 μM, FIG. 5): reduced WDR5 protein levels
- effective degradation of WDR5 in MV4;11 and/or MIAPACA2 cells [3]: able to effectively degrade WDR5

Compound: Cc1ncsc1-c1ccc(CNC(=O)[C@@H]2C[C@@H](O)CN2C(=O)[C@@H](NC(=O)COCCOCCOCCOCCOCC(=O)N2CCN(c3ncc(-c4cc(NC(=O)c5ccc(F)cc5C(F)(F)F)c(N5C[C@@H](C)N(C)[C@@H](C)C5)cc4F)cn3)CC2)C(C)(C)C)cc1 [XF078-106, (2S,4R)-1-((S)-2-(tert-butyl)-20-(4-(5-(2-fluoro-5-(4-fluoro-2-(trifluoromethyl)benzamido)-4-((3S,5R)-3,4,5-trimethylpiperazin-1-yl)phenyl)pyrimidin-2-yl)piperazin-1-yl)-4,20-dioxo-6,9,12,15,18-pentaoxa-3-azaicosanoyl)-4-hydroxy-N-(4-(4-methylthiazol-5-yl)benzyl)pyrrolidine-2-carboxamide]
- effective degradation of WDR5 in MV4;11 and/or MIAPACA2 cells [3]: able to effectively degrade WDR5

Compound: Cc1ncsc1-c1ccc(CNC(=O)[C@@H]2C[C@@H](O)CN2C(=O)[C@@H](NC(=O)CCCCCCCCCCCC(=O)NCCN2CCN(Cc3cccc(-c4ccc(N5CCN(C)CC5)c(NC(=O)c5c[nH]c(=O)cc5C(F)(F)F)c4)c3)CC2)C(C)(C)C)cc1 [XF050-161, N^1-((S)-1-((2S,4R)-4-hydroxy-2-((4-(4-methylthiazol-5-yl)benzyl)carbamoyl)pyrrolidin-1-yl)-3,3-dimethyl-1-oxobutan-2-yl)-N^13-(2-(4-((4′-(4-methylpiperazin-1-yl)-3′-(6-oxo-4-(trifluoromethyl)-1,6-dihydropyridine-3-carboxamido)-[1,1′-biphenyl]-3-yl)methyl)piperazin-1-yl)ethyl)tridecanediamide]
- effective degradation of WDR5 in MV4;11 and/or MIAPACA2 cells [3]: able to effectively degrade WDR5

Compound: Cc1ncsc1-c1ccc(CNC(=O)[C@@H]2C[C@@H](O)CN2C(=O)[C@@H](NC(=O)COCCOCC(=O)N2CCN(Cc3cnc(N4CC=C(c5cc(NC(=O)c6c[nH]c(=O)cc6C(F)(F)F)c(N6C[C@@H](C)N(C)[C@@H](C)C6)cc5F)CC4)nc3)CC2)C(C)(C)C)cc1 [XF078-134, N-(4-fluoro-5-(1-(5-((4-(2-(2-(2-(((S)-1-((2S,4R)-4-hydroxy-2-((4-(4-methylthiazol-5-yl)benzyl)carbamoyl)pyrrolidin-1-yl)-3,3-dimethyl-1-oxobutan-2-yl)amino)-2-oxoethoxy)ethoxy)acetyl)piperazin-1-yl)methyl)pyrimidin-2-yl)-1,2,3,6-tetrahydropyridin-4-yl)-2-((3S,5R)-3,4,5-trimethylpiperazin-1-yl)phenyl)-6-oxo-4-(trifluoromethyl)-1,6-dihydropyridine-3-carboxamide]
- effective degradation of WDR5 in MV4;11 and/or MIAPACA2 cells [3]: able to effectively degrade WDR5

Compound: Cc1ncsc1-c1ccc(CNC(=O)[C@@H]2C[C@@H](O)CN2C(=O)[C@@H](NC(=O)CCCCCCCCCNC(=O)c2ccc(-c3ccc(N4C[C@@H](C)N(C)[C@@H](C)C4)c(NC(=O)c4c[nH]c(=O)cc4C(F)(F)F)c3)c(F)c2)C(C)(C)C)cc1 [XF056-173, N-(2′-fluoro-4′-((10-(((S)-1-((2S,4R)-4-hydroxy-2-((4-(4-methylthiazol-5-yl)benzyl)carbamoyl)pyrrolidin-1-yl)-3,3-dimethyl-1-oxobutan-2-yl)amino)-10-oxodecyl)carbamoyl)-4-((3R,5S)-3,4,5-trimethylpiperazin-1-yl)-[1,1′-biphenyl]-3-yl)-6-oxo-4-(trifluoromethyl)-1,6-dihydropyridine-3-carboxamide]
- proliferation of MIAPACA2 cells [1]: significantly decreased the cell proliferation; also recorded: significantly reduced the proliferation of MIAPACA2 cells
- effective degradation of WDR5 in MV4;11 and/or MIAPACA2 cells [3]: able to effectively degrade WDR5

Compound: Cc1ncsc1-c1ccc(CNC(=O)[C@@H]2C[C@@H](O)CN2C(=O)[C@@H](NC(=O)COCC(=O)N2CC=C(c3cc(NC(=O)c4c[nH]c(=O)cc4C(F)(F)F)c(N4C[C@@H](C)N(C)[C@@H](C)C4)cc3F)CC2)C(C)(C)C)cc1 [XF078-30, N-(4-fluoro-5-(1-(2-(2-(((S)-1-((2S,4R)-4-hydroxy-2-((4-(4-methylthiazol-5-yl)benzyl)carbamoyl)pyrrolidin-1-yl)-3,3-dimethyl-1-oxobutan-2-yl)amino)-2-oxoethoxy)acetyl)-1,2,3,6-tetrahydropyridin-4-yl)-2-((3S,5R)-3,4,5-trimethylpiperazin-1-yl)phenyl)-6-oxo-4-(trifluoromethyl)-1,6-dihydropyridine-3-carboxamide]
- effective degradation of WDR5 in MV4;11 and/or MIAPACA2 cells [3]: able to effectively degrade WDR5

From patent US12110295B2, “WD40 repeat domain protein 5 (WDR5) degradation/disruption compounds and methods of use” (Icahn School of Medicine at Mount Sinai, priority 2018, dated 2024)
